Source: ChEMBL document CHEMBL1123107, “Synthesis, stereochemistry, and analgesic activity of 4-mono- and 4,4-disubstituted 1,2,3,4,5,6-hexahydro-2,6-methano-3-benzazocines” (1985)
Activity calls are given as the source filed them. The calls are words filed in the database; no cut-off is given here.

What follows are molecules tested on Mus musculus (assay: Compound was evaluated for analgesic activity in a mouse hotplate test; IA= Inactive at the dose level of 20 mg/kg).
Assay type: functional, organism-based
Design: dose 20 mg/kg
In the case of C=CC[C@@]1(C)CC2(C)CC(Cc3ccccc32)N1C (some centres undefined), the ED50 is reported as “inactive”.
With CCC1CC2(C)c3ccccc3CC(C2C)N1C (centres undefined) the ED50 was “inactive”.

The molecules below were run on Mus musculus (assay: Compound was evaluated for analgesic activity in a mouse hotplate test; IA= Inactive at the dose level of 50 mg/kg).
Assay type: functional, organism-based
Design: dose 50 mg/kg
For CC1CN(C)C2Cc3ccc(O)cc3C1(C)C2 (centres undefined), the ED50 was “inactive”.

Species on record: Mus musculus
Test: Compound was evaluated for analgesic activity in a mouse hotplate test; b= low level of activity exhibited which did not follow a dose-response relationship
Assay type: functional, organism-based
For CC1C2Cc3ccccc3C1(C)CC(Cc1ccccc1)N2C (centres undefined), the ED50 was “Low level of activity”.
With CC1C2Cc3ccccc3C1(C)CC(CCc1ccccc1)N2C (centres undefined) the ED50 was “Low level of activity”.
CN1C2Cc3ccccc3C(C)(C2)CC1(C)Cc1ccccc1 (centres undefined) was tested, and the ED50 was “Low level of activity”.

Species on record: Mus musculus
Test: Compound was evaluated for analgesic activity in a mouse hotplate test
Assay type: functional
Work on C[C@@H]1CC2(C)CC(Cc3ccccc32)N1C (some centres undefined) yielded an ED50 of 10.6 mg/kg.
With CC1CC2(C)CC(Cc3ccc(O)cc32)N1C (centres undefined) the ED50 was 1.1 mg/kg.
In the case of CC1CC2(C)c3ccccc3CC(C2C)N1C (centres undefined), the ED50 is reported as 14.8 mg/kg.
Work on CC1CC2(C)CC(Cc3ccc(O)cc32)N1CC1CC1 (centres undefined) yielded an ED50 of 2.4 mg/kg.
Work on C=CCN1C(C)CC2(C)CC1Cc1ccc(O)cc12 (centres undefined) yielded an ED50 of 4.2 mg/kg.
Work on C[C@H]1CC2(C)CC(Cc3ccccc32)N1C (some centres undefined) yielded an ED50 of 24.7 mg/kg.
Work on C=CC[C@]1(C)CC2(C)CC(Cc3ccccc32)N1C (some centres undefined) yielded an ED50 of 3.7 mg/kg.
In the case of CN1CC[C@]23c4c5ccc(O)c4O[C@H]2[C@@H](O)C=C[C@H]3[C@H]1C5.CN1CC[C@]23c4c5ccc(O)c4O[C@H]2[C@@H](O)C=C[C@H]3[C@H]1C5.O=S(=O)(O)O, the ED50 is reported as 1.2 mg/kg.
